These results are taken from ChEMBL document CHEMBL4376892, “Identification of Parthenolide Dimers as Activators of Pyruvate Kinase M2 in Xenografts of Glioblastoma Multiforme in Vivo” (J Med Chem, 2020).

Counter-ions that a name gives are not always drawn.

Test [1] deals with U-87 MG. In words: Antiproliferative activity against human U87 cells assessed as reduction in cell viability after 72 hrs by MTT assay. Type of test: functional, cell-based, U-87MG ATCC. On the technique in general: Tetrazolium assays rely on reduction of a dye to a coloured formazan, in cell work by metabolically active cells.
Test [2] relates to U-118-MG. In words: Antiproliferative activity against human U118MG cells assessed as reduction in cell viability after 72 hrs by MTT assay. Type of test: functional, cell-based.
For test [3], the system named is SF-126. In words: Antiproliferative activity against human SF126 cells assessed as reduction in cell viability after 72 hrs by MTT assay. Type of test: functional, cell-based. Particulars: SF-126, 72 h.
Test [4] in a line: Antiproliferative activity against human SHG44 cells assessed as reduction in cell viability after 72 hrs by MTT assay. Type of test: functional, cell-based. The following applies: SHG-44, 72 h.
Test [5] deals with U-251. The test is described as follows: Antiproliferative activity against human U251 cells assessed as reduction in cell viability after 72 hrs by MTT assay. Type of test: functional, cell-based. Particulars: U-251, 72 h.
In test [6] the test system is C6. In words: Antiproliferative activity against rat C6 cells assessed as reduction in cell viability after 72 hrs by MTT assay. The following applies: C6, 72 h. Type of test: functional, cell-based.
The subject of test [7] is NIH3T3. In words: Cytotoxicity against mouse 3T3 cells assessed as reduction in cell viability after 72 hrs by MTT assay. The following applies: NIH3T3, 72 h. Type of test: cell-based.
Test [8] deals with T1, Pyruvate kinase PKM (Homo sapiens, UniProt P14618). In words: Activation of recombinant human N-terminal 6His-tagged PKM2 expressed in Escherichia coli BL21 cells at 10 uM after 30 mins by fluorescence based analysis relative to control.
Target sequence in this assay (P14618 2-531 limits assumed): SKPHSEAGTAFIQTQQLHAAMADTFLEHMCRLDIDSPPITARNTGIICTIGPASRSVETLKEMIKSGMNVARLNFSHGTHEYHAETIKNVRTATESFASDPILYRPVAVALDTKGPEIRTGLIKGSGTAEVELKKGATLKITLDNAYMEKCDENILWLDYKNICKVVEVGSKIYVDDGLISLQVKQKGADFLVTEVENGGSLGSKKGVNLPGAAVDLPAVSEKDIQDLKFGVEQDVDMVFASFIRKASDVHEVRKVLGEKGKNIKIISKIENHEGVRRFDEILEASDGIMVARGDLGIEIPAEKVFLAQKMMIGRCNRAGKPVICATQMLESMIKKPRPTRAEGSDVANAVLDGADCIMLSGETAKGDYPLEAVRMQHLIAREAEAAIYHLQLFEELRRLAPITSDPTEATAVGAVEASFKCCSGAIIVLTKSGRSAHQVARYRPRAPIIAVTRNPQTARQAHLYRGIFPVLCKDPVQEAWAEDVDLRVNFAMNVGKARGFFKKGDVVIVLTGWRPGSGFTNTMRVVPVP
The target of test [9] is T1, Pyruvate kinase PKM. In words: Activation of recombinant human N-terminal 6His-tagged PKM2 expressed in Escherichia coli BL21 cells after 50 mins by fluorescence based analysis.
Target sequence in this assay (P14618 whole entry): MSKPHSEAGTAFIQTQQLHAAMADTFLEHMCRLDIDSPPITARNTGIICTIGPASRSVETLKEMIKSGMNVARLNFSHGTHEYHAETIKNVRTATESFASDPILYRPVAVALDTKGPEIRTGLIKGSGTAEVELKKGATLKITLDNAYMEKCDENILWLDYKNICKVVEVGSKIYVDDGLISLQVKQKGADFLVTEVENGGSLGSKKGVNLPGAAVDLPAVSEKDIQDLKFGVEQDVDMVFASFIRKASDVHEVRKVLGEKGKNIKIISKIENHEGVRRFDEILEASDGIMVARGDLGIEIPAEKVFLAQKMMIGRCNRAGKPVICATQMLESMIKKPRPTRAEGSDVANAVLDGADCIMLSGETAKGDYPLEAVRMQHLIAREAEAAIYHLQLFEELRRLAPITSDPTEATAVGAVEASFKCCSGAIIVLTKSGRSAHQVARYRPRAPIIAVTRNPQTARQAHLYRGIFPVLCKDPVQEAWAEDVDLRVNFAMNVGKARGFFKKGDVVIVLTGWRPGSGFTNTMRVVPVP

A word on the IC50: it is the concentration at which inhibition is half-maximal. Turning to `C=C1C(=O)O[C@@H]2C3O[C@]3(C)CC/C=C(\C)CC[C@@H]12` (stereo partly drawn), the 50% inhibitory concentration (IC50) in [1] worked out at 4.38 µM; in [2], 5.94 µM; in [3] it was 17.1 µM; in test [4] it was 9.52 µM; in test [5], 12.6 µM; in [6], 5.45 µM. Also, the 50% inhibitory concentration (IC50) in test [7] came to 7.14 µM.
With `C=C1C(=O)O[C@H]2[C@H]1CC/C(C(=O)OCCOCCOCCOCCOCCOCCOC(=O)/C1=C/CC[C@@]3(C)O[C@H]3[C@H]3OC(=O)C(=C)[C@@H]3CC1)=C\CC[C@@]1(C)O[C@@H]21`, in test [8], the fold change (FC) is more than 2. Besides, the IC50 in test [1] was 15.1 µM; in [2], 10.6 µM; in test [3], more than 50 µM; in test [4], more than 50 µM; in test [5], more than 50 µM; in test [6], more than 50 µM. Also, the concentration for half-maximal inhibition (IC50) in [7] was more than 50 µM.
Regarding `C=C1C(=O)O[C@H]2[C@H]1CC/C(C(=O)OCCOCCOCCOCCOCCOCCOCCOCCOCCOCCOCCOCCOCCOCCOCCOCCOCCOCCOCCOCCOC(=O)/C1=C/CC[C@@]3(C)O[C@H]3[C@H]3OC(=O)C(=C)[C@@H]3CC1)=C\CC[C@@]1(C)O[C@@H]21`, the fold change (FC) in test [8] was more than 2. For the same compound, the half-inhibitory concentration (IC50) in [1], in test [2], in test [3], in [4], in test [5] and in test [6] was more than 50 µM throughout. In test [7], the IC50 was more than 50 µM.
The term AC50 denotes the midpoint of the concentration-response curve, whichever way the signal moves. For `C=C1C(=O)O[C@H]2[C@H]1CC/C(C(=O)OCCOCCOCCOC(=O)/C1=C/CC[C@@]3(C)O[C@H]3[C@H]3OC(=O)C(=C)[C@@H]3CC1)=C\CC[C@@]1(C)O[C@@H]21`, the fold change (FC) in [8] is more than 2. Besides, in test [9], the AC50 was found to be 0.052 µM. The IC50 is 3.09 µM in test [1]; 2.87 µM in [2]; 10.2 µM in [3]; 10.5 µM in [4]; 9.59 µM in test [5]; 1.59 µM in [6]. Moreover, the 50% inhibitory concentration (IC50) in [7] worked out at 7.86 µM.
As to `C=C1C(=O)O[C@H]2[C@H]1CC/C(C(=O)OCCOCCOCCOCCOCCOCCOCCOCCOCCOCCOCCOCCOCCOCCOCCOCCOCCOCCOC(=O)/C1=C/CC[C@@]3(C)O[C@H]3[C@H]3OC(=O)C(=C)[C@@H]3CC1)=C\CC[C@@]1(C)O[C@@H]21`, the fold change (FC) in test [8] is more than 2. In addition, the half-maximal inhibitory concentration (IC50) in test [1], in [2], in test [3], in [4], in test [5] and in test [6] was more than 50 µM in each case. Also, the half-inhibitory concentration (IC50) in [7] is more than 50 µM.
Take `C=C1C(=O)O[C@H]2[C@H]1CC/C(C(=O)OCCOCCOCCOCCOC(=O)/C1=C/CC[C@@]3(C)O[C@H]3[C@H]3OC(=O)C(=C)[C@@H]3CC1)=C\CC[C@@]1(C)O[C@@H]21`: the fold change (FC) in [8] is more than 2. In addition, the IC50 was determined as 9.13 µM in test [1]; 7.97 µM in test [2]; 20.1 µM in test [3]; 16.3 µM in [4]; 16.6 µM in test [5]; 4.26 µM in test [6]. In [7], the IC50 came out at 16.1 µM.
For the compound `Cn1c2cc([S+](C)[O-])sc2c2cnn(Cc3cccc(N)c3)c(=O)c21` (stereo not drawn), the IC50 in [1] amounted to 86.3 µM; in test [2], 85 µM; in test [3], 89 µM; in [4], 49 µM; in test [5], 65.4 µM; in [6], 81.8 µM. The half-maximal inhibitory concentration (IC50) in test [7] was found to be 56.6 µM.
With `C=C1C(=O)O[C@H]2[C@H]1CC/C(C(=O)OCCOCCOCCOCCOCCOCCOCCOCCOCCOCCOCCOCCOC(=O)/C1=C/CC[C@@]3(C)O[C@H]3[C@H]3OC(=O)C(=C)[C@@H]3CC1)=C\CC[C@@]1(C)O[C@@H]21`, in test [8], the fold change (FC) is more than 2. The concentration for half-maximal inhibition (IC50) was 16.2 µM in [1]; 17.4 µM in [2]; more than 50 µM in test [3]; 50.1 µM in test [4]; more than 50 µM in test [5]; more than 50 µM in test [6]. Further, in test [7], the concentration for half-maximal inhibition (IC50) was more than 50 µM.
Consider `C=C1C(=O)O[C@H]2[C@H]1CC/C(C(=O)OCCOCCOCCOCCOCCOCCOCCOCCOC(=O)/C1=C/CC[C@@]3(C)O[C@H]3[C@H]3OC(=O)C(=C)[C@@H]3CC1)=C\CC[C@@]1(C)O[C@@H]21`, for which the fold change (FC) in test [8] was more than 2. For the same compound, the concentration at half-maximal activity (AC50) in [9] was determined as 0.065 µM. Also, the 50% inhibitory concentration (IC50) is 12.9 µM in test [1]; 11.8 µM in test [2]; more than 50 µM in test [3]; 25.7 µM in test [4]; more than 50 µM in test [5]; 4.98 µM in test [6]. The 50% inhibitory concentration (IC50) in [7] amounted to 22 µM.
In the case of `COc1cccc2c1C(=O)c1c(O)c3c(c(O)c1C2=O)C[C@@](O)(C(=O)CO)C[C@@H]3O[C@H]1C[C@H](N)[C@H](O)[C@H](C)O1` [DOXORUBICIN HYDROCHLORIDE], the half-inhibitory concentration (IC50) in test [1] amounted to 0.15 µM; in test [2], 0.09 µM; in test [3] it was 0.26 µM; in test [4], 1.84 µM; in test [5], 48 µM; in test [6] it was 0.06 µM. The IC50 in [7] came to 0.34 µM.
As to `C=C1C(=O)O[C@H]2[C@H]1CC/C(C(=O)OCCOCCOCCOCCOCCOC(=O)/C1=C/CC[C@@]3(C)O[C@H]3[C@H]3OC(=O)C(=C)[C@@H]3CC1)=C\CC[C@@]1(C)O[C@@H]21`, the fold change (FC) in test [8] was more than 2. Moreover, the concentration for half-maximal inhibition (IC50) in test [1] is 10.6 µM; in test [2] it was 7.5 µM; in test [3], 21 µM; in test [4], 18.5 µM; in [5], 14.1 µM; in test [6] it was 4.82 µM. Further, the half-inhibitory concentration (IC50) in test [7] worked out at 18.8 µM.
`C=C1C(=O)O[C@H]2[C@H]1CC/C(C(=O)OCCOCCOCCOCCOCCOCCOCCOCCOCCOCCOC(=O)/C1=C/CC[C@@]3(C)O[C@H]3[C@H]3OC(=O)C(=C)[C@@H]3CC1)=C\CC[C@@]1(C)O[C@@H]21`: in [8], the fold change (FC) was more than 2. Also, the concentration for half-maximal inhibition (IC50) was more than 50 µM in [1]; 18.7 µM in test [2]; 23.1 µM in test [3]; 24.5 µM in test [4]; 23.3 µM in test [5]; 14.2 µM in test [6]. For the same compound, in test [7], the half-maximal inhibitory concentration (IC50) is more than 50 µM.
Turning to `C=C1C(=O)O[C@H]2[C@H]1CC/C(C(=O)OCCOCCOCCOCCOCCOCCOCCOCCOCCOCCOCCOCCOCCOCCOCCOCCOCCOCCOCCOCCOCCOCCOCCOCCOC(=O)/C1=C/CC[C@@]3(C)O[C@H]3[C@H]3OC(=O)C(=C)[C@@H]3CC1)=C\CC[C@@]1(C)O[C@@H]21`, the fold change (FC) in test [8] is more than 2. Also, the IC50 in [1], in test [2], in test [3], in test [4], in [5] and in test [6] was more than 50 µM throughout. For the same compound, the IC50 in test [7] was more than 50 µM.
